# Results published in PMC11968843, “Sulphostin-inspired N-phosphonopiperidones as selective covalent DPP8 and DPP9 inhibitors” (Nature Communications, 2025).
# Where “and” joins values, the source holds several entries; their conditions need not be identical. Identical values can stand only once. Entries after “also recorded” stand apart in the source; their conditions may differ.
# What was measured:
# HeLa wild-type cells = experiment: Cell viability assay (MTT), co-treatment with Mitomycin C; format: cell-based; conditions: for cell viability normalized for each condition seperately to corresponsing [-MMC +inhibitor] control: +MMC co-treatment, individual replicate values (Supplementary Figure 11b)
# Method: HeLa wild-type (HeLa Flp-In T-REx WT, kind gift from Prof. Matthias Hentze) and HeLa DPP9^KO cells (prepared in-house) were cultured in DMEM (ThermoFisher, USA) supplemented with 10% FBS (PAN Biotech, Germany), 2 mM L-Glutamin (ThermoFisher, USA) and 1% Penicillin/Streptomycin (100 U mL^−1 Penicillin and 100 µg mL^−1 Streptomycin, ThermoFisher, USA). Cells were seeded in 96-well flat-bottom cell culture plates (Greiner, Germany) at a concentration of 5 × 10^3 cells per well (37 °C and 5% CO2). The indicated concentration of Mitomycin C (MMC, Merck) was added to the cells 24 h after seeding, together with 10 µM of the indicated inhibitor. The inhibitors were refreshed every 24 h. Control cells were treated with DMSO.
# Cell viability was measured 72 hours after the MMC treatment. For this, the medium was removed and replaced with phenol-red free DMEM (ThermoFisher, USA) containing 0.5 mg mL^−1 MTT (Sigma Aldrich, USA). Cells were incubated for 30 min at 37 °C, 5% CO2. Subsequently, the medium was removed and replaced by DMSO. The plates were shaken on an orbital shaker for 20 min before measuring the MTT signal on a CARIOstar Plus microplate reader (BMT labtech, Germany). Each experiment was performed three times, each in triplicates.
# PREP = molecular target: T1, PREP (Homo sapiens, UniProt P48147); experiment: PREP biochemical inhibition assay (GP-AMC substrate, IC50); conditions: for IC50: GP-AMC 2 mM, 10 nM enzyme, 45 min pre-incubation at 30 °C; for PREP activity: individual replicates
# T1 construct: purchased Sigma Aldrich, USA
# T1 sequence (P48147 1-710): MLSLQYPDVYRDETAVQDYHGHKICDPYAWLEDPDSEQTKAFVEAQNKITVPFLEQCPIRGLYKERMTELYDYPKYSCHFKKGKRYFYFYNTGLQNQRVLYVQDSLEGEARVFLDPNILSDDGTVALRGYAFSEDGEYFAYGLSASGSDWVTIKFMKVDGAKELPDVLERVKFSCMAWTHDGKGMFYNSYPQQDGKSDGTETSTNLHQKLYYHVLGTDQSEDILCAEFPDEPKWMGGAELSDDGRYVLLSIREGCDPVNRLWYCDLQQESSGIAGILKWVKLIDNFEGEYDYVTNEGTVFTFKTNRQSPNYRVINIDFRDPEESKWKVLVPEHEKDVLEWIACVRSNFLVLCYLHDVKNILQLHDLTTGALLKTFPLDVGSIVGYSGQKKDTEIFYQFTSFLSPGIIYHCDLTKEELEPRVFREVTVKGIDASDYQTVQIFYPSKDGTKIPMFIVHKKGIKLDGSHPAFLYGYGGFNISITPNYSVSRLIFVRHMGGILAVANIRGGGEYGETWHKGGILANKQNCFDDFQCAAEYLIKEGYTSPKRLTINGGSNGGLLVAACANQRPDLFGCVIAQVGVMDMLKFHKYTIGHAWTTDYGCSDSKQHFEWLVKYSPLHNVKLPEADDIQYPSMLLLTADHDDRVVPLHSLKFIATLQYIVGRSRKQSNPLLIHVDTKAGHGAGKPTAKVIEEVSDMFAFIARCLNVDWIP
# Method: Enzyme activity of DPP4, DPP8, DPP9 (Proteros Biostructures GmbH, Germany) and PREP (Sigma Aldrich, USA) was determined by measuring the initial velocity of AMC release from the fluorogenic substrate GP-AMC (Sigma Aldrich, USA) using a Tecan Spark® 10 M multimode microplate reader (Tecan Group Ltd., Switzerland) in activity buffer (20 mM HEPES/KOH pH 7.3, 110 mM potassium acetate, 2 mM Mg acetate, 0.5 mM EGTA, 0.02% Tween 20, supplemented with 1 mM DTT) and a final volume of 20 μL for maximal 60 min at 30 °C. Prior to activity measurement, 10 nM enzyme was incubated for 45 min at 30 °C and gentle shaking with the inhibitor compounds in concentrations ranging from 0 to 100 μM. The compounds were dissolved in DMSO and diluted in activity buffer (final DMSO concentration: 1%). […]. IC50 values were calculated using Graph-Pad Prism v10.2.3 using the equation: [Inhibitor] vs. response—Variable slope (four parameters). All measurements were performed in triplicates and error bars represent standard errors of the fit.
# [1] = molecular target: T2, DPP9-BRCA2 interaction in HeLa wild-type cells (Homo sapiens, UniProt Q86TI2); experiment: Proximity ligation assay (PLA) of MMC-induced DPP9-BRCA2 interaction; format: cell-based; conditions: for 95% confidence interval of difference: compound vs. +Ctrl., Unpaired two-sided t-test
# T2 construct: endogenous in cells; host or cells: HeLa wild-type (HeLa Flp-In T-REx WT)
# Method: HeLa wild-type cells were cultured as described above. Cells were seeded on coverslips in 24‐well plates (Greiner, Germany) at a concentration of 2 × 10^4 cells per well (37 °C and 5% CO2). To induce a DPP9-BRCA2 interaction, 300 nM MMC was added to the cells 8 h after seeding and for a total incubation time of 24 h. Indicated Inhibitors (10 µM) were added 1 h prior to cell fixation. Cells were fixed with 4% formaldehyde in PBS for 10 min and permeabilized with 0.2% Triton‐X‐100 in PBS for 5 min. The proximity ligation assay (PLA) was performed using the Duolink in situ PLA Kit (Sigma Aldrich, USA). Briefly, cells were washed with PBS and blocked with Duolink Blocking solution for 60 min at 37 °C. […] Antibody control coverslips were treated with only one primary antibody to estimate background staining in each experiment. Coverslips were washed and treated with PLA reagents according to the manufacturers protocol. Cells were mounted in DAKO with DAPI fluorescent mounting medium and analyzed using an LSM 710 confocal microscope, 63x NA 1.4 oil immersion objective (Zeiss, Germany). Images were processed using Zen black v2.3 (Zeiss, Germany) and subsequently analyzed using the Duolink ImageTool Setup 1.0.1.2 (Sigma Aldrich, USA).
# [2] = molecular target: T3, HEK293 cell lysates (proteome-wide targets of probe 9) (Homo sapiens, UniProt P05388); experiment: Competitive ABPP / direct target identification with alkyne probe 9 in HEK293 cell lysates; format: binding, H. sapiens; conditions: protein RPLP0;RPLP0P6
# T3 construct: endogenous in cells; host or cells: HEK293 cell lysate
# [3] = molecular target: T4, HEK293 cell lysates (proteome-wide targets of probe 9) (Homo sapiens, UniProt P0DMV8); experiment: as above; format: binding, H. sapiens; conditions: protein HSPA1A;HSPA1B
# T4 construct: endogenous in cells; host or cells: HEK293 cell lysate
# [4] = Figure 5d S11a, + Ctrl. [+MMC] vs. compound [+MMC], Tukey's multiple comparisons test
# [5] = Figure S11b, Ctrl. vs. compound, Uncorrected Fisher's LSD
# T2 sequence (Q86TI2 whole entry): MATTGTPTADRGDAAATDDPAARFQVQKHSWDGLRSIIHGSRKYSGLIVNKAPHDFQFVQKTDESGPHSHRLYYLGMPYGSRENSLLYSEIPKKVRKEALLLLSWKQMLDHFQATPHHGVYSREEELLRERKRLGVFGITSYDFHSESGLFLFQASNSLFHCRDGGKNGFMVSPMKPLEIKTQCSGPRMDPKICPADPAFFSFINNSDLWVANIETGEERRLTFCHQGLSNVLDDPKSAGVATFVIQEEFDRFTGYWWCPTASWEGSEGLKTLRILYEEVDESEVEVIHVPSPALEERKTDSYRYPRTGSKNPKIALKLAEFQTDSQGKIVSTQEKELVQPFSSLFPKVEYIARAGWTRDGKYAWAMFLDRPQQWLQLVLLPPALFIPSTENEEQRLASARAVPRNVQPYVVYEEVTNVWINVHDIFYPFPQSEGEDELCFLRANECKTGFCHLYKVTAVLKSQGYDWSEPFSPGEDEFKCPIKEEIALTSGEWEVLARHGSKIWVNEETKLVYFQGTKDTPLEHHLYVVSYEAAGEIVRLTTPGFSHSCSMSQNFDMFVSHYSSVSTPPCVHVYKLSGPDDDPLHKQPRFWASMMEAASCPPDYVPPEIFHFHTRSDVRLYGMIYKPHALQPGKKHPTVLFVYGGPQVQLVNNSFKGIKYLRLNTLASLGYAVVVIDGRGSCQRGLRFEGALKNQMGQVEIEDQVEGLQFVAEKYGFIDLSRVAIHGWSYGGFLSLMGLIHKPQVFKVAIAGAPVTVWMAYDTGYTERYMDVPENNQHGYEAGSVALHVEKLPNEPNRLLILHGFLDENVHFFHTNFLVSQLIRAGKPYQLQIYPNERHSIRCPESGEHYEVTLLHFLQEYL
# T4 sequence (P0DMV8 whole entry): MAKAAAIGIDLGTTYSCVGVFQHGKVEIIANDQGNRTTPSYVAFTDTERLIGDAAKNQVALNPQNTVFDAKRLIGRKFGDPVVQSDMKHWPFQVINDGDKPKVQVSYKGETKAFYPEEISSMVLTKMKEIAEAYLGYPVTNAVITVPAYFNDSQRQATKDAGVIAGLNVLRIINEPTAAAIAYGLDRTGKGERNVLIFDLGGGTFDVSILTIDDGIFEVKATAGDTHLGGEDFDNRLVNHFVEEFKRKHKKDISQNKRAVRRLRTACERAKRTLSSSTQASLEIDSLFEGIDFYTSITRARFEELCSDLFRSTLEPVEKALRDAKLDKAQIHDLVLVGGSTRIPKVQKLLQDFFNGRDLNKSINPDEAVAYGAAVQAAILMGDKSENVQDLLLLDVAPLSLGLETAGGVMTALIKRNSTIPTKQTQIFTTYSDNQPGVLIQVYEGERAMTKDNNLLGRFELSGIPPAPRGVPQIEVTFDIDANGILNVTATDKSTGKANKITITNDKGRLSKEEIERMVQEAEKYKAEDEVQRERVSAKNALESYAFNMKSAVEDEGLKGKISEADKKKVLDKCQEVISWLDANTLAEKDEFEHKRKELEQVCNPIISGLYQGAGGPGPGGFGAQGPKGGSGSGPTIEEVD
SMILES,cell viability normalized for each condition seperately to corresponsing [-MMC +inhibitor] control (HeLa wild-type cells),95% confidence interval of difference (HeLa wild-type cells; [4]),95% confidence interval of difference (HeLa wild-type cells; [5]),IC50 (PREP) [µM],PREP activity (PREP; c 1562.5 nM),PREP activity (PREP; c 3125 nM),PREP activity (PREP; c 6250 nM),PREP activity (PREP; c 25000 nM),PREP activity (PREP; c 50000 nM),PREP activity (PREP; c 100000 nM),activity against PREP (PREP; within the nanomolar and low micromolar range (< 50 µM)),95% confidence interval of difference ([1]; Figure 5c),95% confidence interval of difference ([1]; Figure S10a replicate 1),95% confidence interval of difference ([1]; Figure S10a replicate 2),95% confidence interval of difference ([1]; Figure S10a replicate 3),"effect on MMC-induced DPP9-BRCA2 PLA events ([1]; HeLa wild-type, 300 nM MMC 24 h, 10 µM inhibitor)","effect on cell viability / sensitivity to MMC (HeLa wild-type cells; HeLa wild-type, 1 µM MMC + 10 µM inhibitor, 72 h)",Log2-fold change (9/DMSO) [2],Log2-fold change (9/DMSO) [3]
CCCCCCP(=O)(OCC)N1CCC[C@H](N)C1=O (some centres unmarked) [Compound 5],58.346% and 64.1242% and 71.7486% and 57.5023% and 82.3895% and 73.7368% and 74.46% and 78.7587% and 61.0935%,"-9,959 to 11,24","-11,45 to 2,173",,,,,,,,,,,,,,,,
CCCCCc1ccc(SCCP(=O)(OCC)N2CCC[C@H](N)C2=O)cc1.O=C(O)C(F)(F)F (some centres unmarked) [Compound 16],56.5022% and 55.2183% and 55.934% and 53.6658% and 54.9944% and 49.1952% and 50.7013% and 59.4169% and 66.1488%,"1,107 to 22,31","1,930 to 15,55",> 50,98.7862% and 85.8025% and 104.946%,105.742% and 108.717% and 107.921%,96.1256% and 97.1517% and 97.4675%,92.3447% and 104.519% and 98.6461%,66.9978% and 69.9305% and 64.8732%,38.3396% and 47.6921% and 43.692%,no activity against PREP,"-75,96 to -55,68","-67,48 to -40,38","-89,07 to -45,54","-92,21 to -59,25",significant reduction in the number of MMC-induced PLA events,increase in the sensitivity of cells to genotoxic stress; also recorded: clearly increased the sensitivity of cells to MMC,,
C#CCCCP(=O)(OCC)N1CCCC(N)C1=O.O=C(O)C(F)(F)F (mixture of isomers) [Compound 9],,,,13.4,90.6956% and 100.18% and 91.6611%,81.4016% and 83.8359% and 86.7341%,70.1184% and 68.121% and 70.2915%,42.6998% and 39.4794% and 39.8185%,17.1276% and 17.8294% and 21.3954%,12.8608% and 13.0915% and 11.6555%,,,,,,,,0.9479,0.0845
